The term Km denotes the substrate concentration at which the rate is half of its maximum.

Assay [1] concerns the target LBAA glyphosate oxidoreductase variant v1w2w3 (GLY84, LYS153, HIS334) (Ochrobactrum sp. G-1, UniProt D2KI28, S2A/S84G). In words: Kinetic analysis of domain switches, clone v1w2w3. In kind it is biochemical, bacterial isolate LBAA (Pseudomonas strain LBAA). The conditions noted are these: substrate glyphosate. The procedure:
(§1) The mutagenesis procedure used was that of Mn++-poisoned PCR and the template was a linearized glyphosate oxidoreductase gene plasmid containing the synthetic glyphosate oxidoreductase gene (SEQ ID NO:8). The oligonucleotide primers used were homologous to regions in the vector and flanking the glyphosate oxidoreductase gene. The PCR conditions employed were as follows: 1 minute at 94° C., 2 minutes at 55° C., and 3 minutes at 72° C. and with 35 cycles. A 5:1 ratio of dCTP+dGTP+TTP to dATP was used. The reactions contained MnCl2 at 125, 250, 375, or 500 μM. After the reaction, the amplified product was recloned into a vector containing a weak E. coli promoter. This vector was a pBR327 derivative containing the araBAD promoter and suitable cloning sites. […] Growth rates were determined by measuring A550 over a 96 hour period. […] Protein concentrations were determined using the Bio-Rad protein dye-binding assay. […] Ten minutes was determined to be the optimal time for the enzyme assay using 10 μg lysate. […] Enzyme activity was determined from the amount of glyoxylate-DNPH adduct formed by measuring A520 against a standard of glyoxylate. […] The Km and Vmax were determined from Lineweaver Burk, Eadie-Hofstee and hyperbolic kinetic plots. […]

Assay [2] deals with LBAA glyphosate oxidoreductase variant v1v2w3 (GLY84, ARG153, HIS334) (Ochrobactrum sp. G-1, UniProt D2KI28, K153R/S2A/S84G). As to the kind of experiment: Kinetic analysis of domain switches, clone v1v2w3. In kind it is biochemical, bacterial isolate LBAA (Pseudomonas strain LBAA). The conditions noted are these: substrate glyphosate. The procedure:
as §1

Assay [3] concerns the target LBAA glyphosate oxidoreductase variant w1w2v3 (SER84, LYS153, ARG334) (Ochrobactrum sp. G-1, UniProt D2KI28, H334R/S2A). As to the kind of experiment: Kinetic analysis of domain switches, clone w1w2v3. In kind it is biochemical, bacterial isolate LBAA (Pseudomonas strain LBAA). The conditions noted are these: substrate glyphosate. As to the method:
as §1

In assay [4] the target is LBAA glyphosate oxidoreductase variant v1w2v3 (GLY84, LYS153, ARG334) (Ochrobactrum sp. G-1, UniProt D2KI28, H334R/S2A/S84G). In words: Kinetic analysis of domain switches, clone v1w2v3. Type of assay: biochemical, bacterial isolate LBAA (Pseudomonas strain LBAA). The conditions noted are these: substrate glyphosate. As to the method:
as §1

Assay [5] deals with LBAA glyphosate oxidoreductase variant ARG 334 (His334 to Arg) (Ochrobactrum sp. G-1, UniProt D2KI28, H334R/S2A). As to the kind of experiment: Kinetic analysis of glyphosate oxidoreductase variant ARG 334 (site-directed mutagenesis). In kind it is biochemical, bacterial isolate LBAA (Pseudomonas strain LBAA).
The subject of assay [6] is Agrobacterium sp. strain T10 glyphosate oxidoreductase. As to the kind of experiment: Km of glyphosate oxidoreductase from Agrobacterium sp. strain T10. Type of assay: biochemical. The procedure:
A population of bacteria was isolated from a fixed-bed immobilized cell column, which employed Mannville R-635 diatomaceous earth beads, by plating on Tryptone Soy Agar (Difco), containing cylcoheximide at 100 ug/ml, and incubating at 28° C. The column had been run for three months on a waste-water feed from the Monsanto Company's Luling, MS, glyphosate production plant. The column contained 50 mg/ml glyphosate and NH3 as NH4Cl. Total organic carbon was 300 mg/ml and BOD's (Biological Oxygen Demand—a measure of “soft” carbon availability) was less than 30 mg/ml. This treatment column has been described (Heitkamp et al., 1990). […] Chromosomal DNA was prepared from this isolate and subjected to the same PCR procedure and with the same primers as described above for the strain LBr. A fragment of the correct size was generated and cloned into the E. coli expression vector. The glyphosate oxidoreductase activity was assayed and the Km for glyphosate also determined: […]

The target of assay [7] is LBAA glyphosate oxidoreductase variant w1v2v3 (SER84, ARG153, ARG334) (Ochrobactrum sp. G-1, UniProt D2KI28, H334R/K153R/S2A). In words: Kinetic analysis of domain switches, clone w1v2v3. Type of assay: biochemical, bacterial isolate LBAA (Pseudomonas strain LBAA). The conditions noted are these: substrate glyphosate. The procedure:
as §1

Regarding `O=C(O)CNCP(=O)(O)O` [glyphosate, N-phosphonomethyl-glycine], the VmKm is recorded as 0.027 in assay [1]; 0.021 in assay [2]; 0.375 in assay [3]; 0.21 in assay [4]; 0.28 in assay [7]. In addition, the “VmKm (Glyp)” value in assay [5] is “.23”. For the same compound, the Michaelis-Menten constant (Km) in assay [6] is 28 mM.

(Values after patent USRE38825E1, “Glyphosate tolerant plants” (Monsanto Technology LLC, priority 1990, dated 2005).)
